In one data set the target is CYP3A4 (Homo sapiens, UniProt P08684). Put plainly: Cytochrome P450 (CYP450) Inhibition Assay, CYP3A4 (Vivid fluorescence, BOMCC substrate). As to conditions: human, P450 Baculosomes (recombinant CYP3A4), probe BOMCC (Vivid substrate).
The next data set relates to sodium channel. Put plainly: Guanidine influx assay (14C-guanidine radiotracer flux, in vitro). The note with it: guanidine influx assay using a known cell line that expresses a sodium channel; activity level class. The data set is classed as cell-based, human or rat. In a few lines: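 Sodium channel block is measured as reduced 14C-guanidine uptake in cells stably expressing human or rat channels, stimulated with aconitine. Potency is given as IC50 from a four-parameter curve.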

Experimental findings from patent publication US8263606B2 (Xenon Pharmaceuticals Inc., priority 2008, dated 2012) are described below.

Usually melting point stands for the temperature of the solid-liquid transition. Usually inhibition stands for how much of the control response was suppressed. For orientation: IC50 means the concentration that gives 50% inhibition.

Each structure is given as a SMILES string.

Chain of CYP3A4 (P08684 whole entry): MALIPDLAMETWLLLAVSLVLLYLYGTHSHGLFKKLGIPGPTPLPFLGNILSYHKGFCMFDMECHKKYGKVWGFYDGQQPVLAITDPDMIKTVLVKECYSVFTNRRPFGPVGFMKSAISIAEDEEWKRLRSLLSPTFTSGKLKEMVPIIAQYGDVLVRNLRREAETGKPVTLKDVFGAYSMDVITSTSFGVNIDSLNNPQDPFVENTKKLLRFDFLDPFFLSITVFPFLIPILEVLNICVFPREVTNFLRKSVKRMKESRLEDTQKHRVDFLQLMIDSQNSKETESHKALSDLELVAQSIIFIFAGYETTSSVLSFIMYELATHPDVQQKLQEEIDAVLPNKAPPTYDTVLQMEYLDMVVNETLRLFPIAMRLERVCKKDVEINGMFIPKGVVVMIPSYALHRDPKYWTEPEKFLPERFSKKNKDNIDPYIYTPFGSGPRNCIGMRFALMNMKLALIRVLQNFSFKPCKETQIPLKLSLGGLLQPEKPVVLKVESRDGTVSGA

Take `O=C1N(Cc2nnc(-c3ccccc3)o2)c2ccccc2C12COc1cc3c(cc12)OCO3` (stereo not drawn) [Example 6.6, 1′-[(5-phenyl-1,3,4-oxadiazol-2-yl)methyl]spiro[furo[2,3-f][1,3]benzodioxole-7,3′-indol]-2′(1′H)-one]: the melting point was in the range of 158 to 160 °C. Moreover, the inhibition at 10 µM on CYP3A4 is greater than 50%. In addition, in the data set with sodium channel, the IC50 fell in the range of 100 to 1000 nM.

The molecule `O=C1N(Cc2nnc(-c3ccc(Cl)cc3)o2)c2ccccc2C12COc1cc3c(cc12)OCO3` (stereo not drawn) [Example 6.7, 1′-{[5-(4-chlorophenyl)-1,3,4-oxadiazol-2-yl]methyl}spiro[furo[2,3-f][1,3]benzodioxole-7,3′-indol]-2′(1′H)-one] had a melting point of 161 to 162 °C. In addition, the inhibition at 10 µM at CYP3A4 was greater than 50%. Moreover, in the data set with sodium channel, the IC50 fell in the range of 100 to 1000 nM.

As for `O=C1N(Cc2nc3ncccc3o2)c2ccccc2C12COc1cc3c(cc12)OCO3` (stereo not drawn) [Example 6.8, 1′-([1,3]oxazolo[4,5-b]pyridin-2-ylmethyl)spiro[furo[2,3-f][1,3]benzodioxole-7,3′-indol]-2′(1′H)-one], the melting point was in the range of 202 to 204 °C. The inhibition at 10 µM at CYP3A4 was less than 50%. In addition, the IC50 in the data set with sodium channel is 1 to 100 nM.

For `O=C1N(Cc2cccc(C(F)(F)F)c2)c2ccccc2C12COc1cc3c(cc12)OCCO3` (stereo not drawn) [Example 7.1, 1′-[3-(trifluoromethyl)benzyl]-2,3-dihydrospiro[furo[2,3-g][1,4]benzodioxine-8,3′-indol]-2′(1′H)-one], the melting point was in the range of 131 to 134 °C. For the same molecule, the inhibition at 10 µM on CYP3A4 is less than 50%. The IC50 in the data set with sodium channel was 1 to 100 nM.

As for `COC(=O)c1ccc(CN2C(=O)C3(COc4cc5c(cc43)OCCO5)c3ccccc32)o1` (stereo not drawn) [Example 7.2, methyl 5-[(2′-oxo-2,3-dihydrospiro[furo[2,3-g][1,4]benzodioxine-8,3′-indol]-1′(2′H)-yl)methyl]furan-2-carboxylate], the melting point is 88 to 92 °C. In addition, at CYP3A4, the inhibition at 10 µM was greater than 50%. In addition, the IC50 in the data set on sodium channel was 1 to 100 nM.

As for `O=C1N(C[C@H]2COCCO2)c2ccccc2C12COc1cc3c(cc12)OCO3` (stereo partly drawn) [Example 8, 1′-[(2S)-1,4-dioxan-2-ylmethyl]spiro[furo[2,3-f][1,3]benzodioxole-7,3′-indol]-2′(1′H)-one], the melting point was in the range of 147 to 149 °C. Further, on CYP3A4, the inhibition at 10 µM is greater than 50%. In the data set on sodium channel, the IC50 was in the range of 1 to 100 nM.

As for `O=C1N(C[C@H]2CCCO2)c2c(Cl)cccc2C12COc1cc3c(cc12)CCO3` (stereo partly drawn) [Example 8.1, 7′-chloro-1′-[(2R)-tetrahydrofuran-2-ylmethyl]-5,6-dihydrospiro[benzo[1,2-b:5,4-b′]difuran-3,3′-indol]-2′(1′H)-one], the melting point fell in the range of 192 to 193 °C. Further, the inhibition at 10 µM at CYP3A4 is less than 50%. Further, in the data set on sodium channel, the IC50 was 100 to 1000 nM.

The molecule `Cc1ccc(F)c2c1N(C[C@H]1CCCO1)C(=O)C21COc2cc3c(cc21)CCO3` (stereo partly drawn) [Example 8.3, 4′-fluoro-7′-methyl-1′-[(2R)-tetrahydrofuran-2-ylmethyl]-5,6-dihydrospiro[benzo[1,2-b:5,4-b′]difuran-3,3′-indol]-2′(1′H)-one] registered a melting point of 175 to 176 °C. In addition, the inhibition at 10 µM on CYP3A4 is greater than 50%. The IC50 in the data set on sodium channel lay in the range of 1 to 100 nM.

`O=C1N(C[C@@H]2COCCO2)c2ccccc2[C@@]12COc1cc3c(cc12)OCCO3` [Example 8.5, (8R)-1′-[(2R)-1,4-dioxan-2-ylmethyl]-2,3-dihydrospiro[furo[2,3-g][1,4]benzodioxine-8,3′-indol]-2′(1′H)-one] showed a melting point of 198 to 199 °C. The inhibition at 10 µM on CYP3A4 was less than 50%. Moreover, the IC50 in the data set with sodium channel fell in the range of 1000 to 10000 nM.

`O=C1N(C[C@H]2CCCO2)c2ccccc2C12COc1cc3c(cc12)OCC3` (stereo partly drawn) [Example 8.9, 1′-[(2R)-tetrahydrofuran-2-ylmethyl]-6,7-dihydrospiro[benzo[1,2-b:4,5-b′]difuran-3,3′-indol]-2′(1′H)-one] returned a melting point of 162 to 164 °C. Further, at CYP3A4, the inhibition at 10 µM was less than 50%. Further, in the data set on sodium channel, the IC50 lay within 100 to 1000 nM.

On to `O=C1N(C[C@@H]2COCCO2)c2ccccc2C12COc1cc3c(cc12)OCC3` (stereo partly drawn) [Example 8.10, 1′-[(2R)-1,4-dioxan-2-ylmethyl]-6,7-dihydrospiro[benzo[1,2-b:4,5-b′]difuran-3,3′-indol]-2′(1′H)-one], for which the melting point fell in the range of 162 to 164 °C. On CYP3A4, the inhibition at 10 µM was less than 50%. Moreover, in the data set with sodium channel, the IC50 was in the range of 100 to 1000 nM.

Consider `O=C1N(C[C@H]2CCCO2)c2ccccc2C12COc1cc3c(cc12)OCCCO3` (stereo partly drawn) [Example 8.11, 1′-[(2R)-tetrahydrofuran-2-ylmethyl]-3,4-dihydro-2H-spiro[furo[2,3-h][1,5]benzodioxepine-9,3′-indol]-2′(1′H)-one], for which the melting point is 134 to 138 °C. Further, the inhibition at 10 µM at CYP3A4 is less than 50%. Moreover, the IC50 in the data set on sodium channel lay in the range of 1000 to 10000 nM.

`Cn1c(=O)oc2cc3c(cc21)OCC31C(=O)N(C[C@H]2CCCO2)c2ccccc21` (stereo partly drawn) [Example 8.14, 3-methyl-1′-(((R)-tetrahydrofuran-2-yl)methyl)-2H-spiro[benzofuro[6,5-d]oxazole-7,3′-indoline]-2,2′(3H,6H)-dione] came in with a melting point of 186 to 187 °C. Moreover, at CYP3A4, the inhibition at 10 µM is less than 50%. Besides, the IC50 with sodium channel lay within 1000 to 10000 nM.

`O=C1N(Cc2ccccn2)c2c(F)cccc2C12COc1cc3c(cc12)OCCO3` (stereo not drawn) [Example 8.15, 7′-fluoro-1′-(pyridin-2-ylmethyl)-3,7-dihydro-2H-spiro[benzofuro[5,6-b][1,4]dioxine-8,3′-indolin]-2′-one] displayed a melting point of 205 to 207 °C. In addition, the inhibition at 10 µM on CYP3A4 is less than 50%. Also, the IC50 with sodium channel is 1 to 100 nM.

Molecule `O=C1N(Cc2ncccc2C(F)(F)F)c2c(F)cccc2C12COc1cc3c(cc12)OCCO3` (stereo not drawn) [Example 8.16, 7′-fluoro-1-((3-(trifluoromethyl)pyridin-2-yl)methyl)-3,7-dihydro-2H-spiro[benzofuro[5,6-b][1,4]dioxine-8,3′-indolin]-2′-one] came in with a melting point of 241 to 243 °C. Besides, the inhibition at 10 µM at CYP3A4 was less than 50%. Besides, the IC50 in the data set on sodium channel lay within 1 to 100 nM.

Regarding `O=C1N(Cc2ccccc2C(F)F)c2ccccc2C12COc1cc3c(cc12)OCCO3` (stereo not drawn) [Example 8.17], the melting point lay within 191 to 193 °C. For the same molecule, on CYP3A4, the inhibition at 10 µM is less than 50%. The IC50 with sodium channel is 1 to 100 nM.

`O=C1N(Cc2cncc(F)c2)c2ccccc2[C@]12COc1cc3c(cc12)OCCO3` [Example 8.19, (8S)-1′-[(5-fluoropyridin-3-yl)methyl]-2,3-dihydrospiro[furo[2,3-g][1,4]benzodioxine-8,3′-indol]-2′(1′H)-one] returned a melting point of 197 to 200 °C. Besides, at CYP3A4, the inhibition at 10 µM is less than 50%. Also, the IC50 in the data set on sodium channel was in the range of 1 to 100 nM.

Turning to `COCCOCCN1C(=O)C2(COc3cc4c(cc32)CCO4)c2ccccc21` (stereo not drawn) [Example 9.1, 1′-[2-(2-methoxyethoxy)ethyl]-5,6-dihydrospiro[benzo[1,2-b:5,4-b′]difuran-3,3′-indol]-2′(1′H)-one], the melting point was in the range of 105 to 107 °C. Also, on CYP3A4, the inhibition at 10 µM was greater than 50%. In addition, the IC50 in the data set on sodium channel lay in the range of 100 to 1000 nM.

For `O=C1CC[C@@H](CN2C(=O)C3(COc4cc5c(cc43)CCO5)c3ccccc32)N1` (stereo partly drawn) [Example 9.2, 1′-{[(2S)-5-oxopyrrolidin-2-yl]methyl}-5,6-dihydrospiro[benzo[1,2-b:5,4-b′]difuran-3,3′-indol]-2′(1′H)-one], the melting point was 133 to 136 °C. Moreover, the inhibition at 10 µM on CYP3A4 was less than 50%. The IC50 in the data set with sodium channel was 1000 to 10000 nM.
